Source: EP4733400A1, “ANTISENSE OLIGONUCLEOTIDE TARGETING HIC-5” (SHOWA Medical University, priority 2023, dated 2025)
{TEG-Chol} = cholesterol attached via TEG linker; l = locked nucleic acid (LNA); {Toco} = tocopherol conjugate; d = 2'-deoxy (DNA)

System: Hic-5
Test: Condition 8: Hic-5 expression by RT-PCR, human HSCs, ASO 5 µM without transfection reagent, 72 hours
Assay type: cell-based
Conditions: ratio, mean±SEM

Substance	Expression Inhibition Rate (4) Condition 8 (n=2)
H26_cho: modified at the 5' end of H26 with TEG-cholesterol; GCTCGTGGAAACCCTC; LNA 1-3,14-16; SEQ ID NO 458 (sugars from the 5' end l3 d10 l3, 5' {TEG-Chol}, backbone and methylation of C not given here)	0.161±0.110
H26_toco: modified at the 5' end of H26 with tocopherol; GCTCGTGGAAACCCTC; LNA 1-3,14-16; SEQ ID NO 459 (sugars from the 5' end l3 d10 l3, 5' {Toco}, backbone and methylation of C not given here)	0.738±0.010
